The structures appear in SMILES notation. Entries after “also recorded” stand apart in the source; their conditions may differ.

The text below walks through data of patent US20150052630A1, “Methods and Compositions for Obtaining Useful Plant Traits” (Board of Regents of the University of Nebraska, priority 2013, published 2015).

For the assay, the system named is Arabidopsis seedlings (wild type Col-0, epi-line, Col-0/msh1 graft progeny). Nature of the assay: 5-Azacytidine treatment and root length assay (methylation inhibition assay). The assay is classed as in vivo. The settings on record: 50 μM 5-azacytidine, half-strength MS plates, seedlings transferred 3 days post-germination, root lengths measured at ten days. The source says:
FIG. 27A-C. a, Distribution of msh1 SNPs and indels versus Col-0 across the genome. Each dot represents the number of SNPs and indels found in a window of 50 kbp. Note that the Y-axis has been synchronized with the maximum number found on chr4 to enable comparisons between chromosomes. The region 7,800,000-9,850,0000 bp on chr4, a likely introgressed segment from Ler, contains 8582 of the total 12,771 SNPs and indels. […] Paired-end genome-wide sequencing, alignment and de novo partial assembly of the chm1-1 genome produced 14,416 contigs (n50=40,761 bp) containing 118.5 Mbp; mapping these contigs against Col-0 covers 72 Mbp. Alignment of paired-end reads to the Col-0 public reference sequence produced 95% alignment and identified 12,771 SNPs and indels, with the one 2-Mbp interval, on chromosome 4, accounting for 8,582 and the second on Chromosome 3 accounting for 2200. […]
Treatment with azacytidine can be used to nullify methylation effects^42. […] Ten days after moving to growth chamber, plates were scanned and root lengths were measured using ImageJ. […]

Turning to `Nc1ncn([C@@H]2O[C@H](CO)[C@@H](O)[C@H]2O)c(=O)n1` [5-azacytidine], the “effect on enhanced epi-line root length” value was “restoration of epi-F3 seedlings to wild type growth levels; also recorded: abolished”.
